Source: US20140248227A1, “DEODORIZING COMPOSITIONS” (Henkel AG & Co. KGaA, priority 2011, published 2014)

Assay: odor evaluation of filter papers treated with active agent and artificial perspiration mixture by six trained testers
Details: 0.5-wt % solution in ethanol on filter paper; 24 hours at room temperature; scale 0 (no difference from ethanol control) to 4 (very much better odor reduction)
Source text: An artificial perspiration mixture was produced by mixing different short-chain fatty acids at specific quantitative ratios (C6, C8, C9, C10, isovaleric acid). respective 0.5-wt % solutions in ethanol were produced of each of the active agents and active-agent combinations to be tested, applied in a standardized quantity onto filter paper, and dried for one hour at room temperature. The artificial perspiration mixture was then applied in a standardized quantity, and the filters were stored for 24 hours at room temperature in a closed container. An odor evaluation of the samples was carried out by six trained testers using a scale from 0 (no difference from ethanol control) to 4 (very much better odor reduction as compared with ethanol control).

Compound	reduction in perspiration odor as compared with the ethanol control
CC(C)[C@@H]1CC[C@@H](C)C[C@H]1O (racemic) [DL-Menthol, DL-menthol]	1.67 units
CC12CCC(CC1)C(C)(C)O2 [eucalyptol, 1,3,3-trimethyl-2-oxabicyclo[2.2.2]octane]	0.92 units
C/C=C\c1ccc(OC)cc1 [anethole]	2.42 units
